pIC50: −log10 of the molar value.
Test system: histone deacetylase in nuclear extracts from H446 cells (pooled HDACs)
Test: Histone deacetylase inhibition, H446 nuclear extracts (pooled HDACs)
Format: biochemical, human
Conditions: @ 20 μM
Procedure: (§1) The reaction was stopped by adding acetic acid (0.04 M, final concentration) and HCl (250 mM, final concentration). The mixture was extracted with ethyl acetate and the released [^3H]-acetic acid was quantified by scintillation counting. For inhibition studies, the enzyme was preincubated with compounds at 4° C. for 30 minutes prior to initiation of the enzymatic assay. IC50 values for HDAC enzyme inhibitors were determined by performing dose response curves with individual compounds and determining the concentration of inhibitor producing fifty percent of the maximal inhibition.

| Compound | pooled HDACs percent inhibition at the specified concentration |
| --- | --- |
| Nc1ccccc1NC(=O)/C=C/c1ccc(CC(=O)c2ccccc2)o1 [Compound 139] | 44% @ 20 μM |
| Nc1ccccc1NC(=O)CCc1ccc(CC(=O)c2ccccc2)o1 [Compound 144] | 6% @ 20 μM |
| O=C(NO)c1ccc(CCCC(O)c2ccc3ccccc3c2)cc1 (stereo not drawn) [Compound 149] | 8% @ 20 μM |
| O=C(CCCc1ccc(CCCc2ccccc2)cc1)NO [Compound 155] | 39% @ 20 μM |
| Nc1ccccc1NC(=O)/C=C/C#Cc1cccc(NS(=O)(=O)c2ccccc2)c1 [Compound 168] | 0% @ 20 μM |
| CN(C)c1ccc(CCc2ccccc2C(=O)NO)cc1 [Compound 173] | 35% @ 20 μM |
| O=C(CCC1CCC(CC(=O)c2ccccc2)O1)NO (stereo not drawn) [Compound 176] | 20% @ 20 μM |
| O=C(CCCc1ccc(C(=O)NO)cc1)c1ccccc1 [Compound 177] | 10% @ 20 μM |
| Nc1ccccc1NC(=O)c1ccc(CC(=O)c2ccccc2)o1 [Compound 178] | 2% @ 20 μM |

Same assay, conditions: [3H]-acetylated histone substrate

| Compound | pIC50 |
| --- | --- |
| O=C(CCc1ccc(CCCCc2ccccc2)cc1)NO [Compound 154] | 5.70 |
| O=C(Cc1ccc(CCCc2ccccc2)cc1)NO [Compound 175] | < 4.70 |

Biological target: T1, recombinant human HDAC-1 enzyme (rHDAC-1) (Homo sapiens, UniProt Q13547)
T1 construct: made in house; host or cells: Baculovirus insect cell expression system
Test: Histone deacetylase inhibition, recombinant human HDAC-1
Format: biochemical
Conditions: cloned recombinant human HDAC-1 from Baculovirus insect cell expression system
Procedure: as §1

T1 sequence (Q13547 whole entry): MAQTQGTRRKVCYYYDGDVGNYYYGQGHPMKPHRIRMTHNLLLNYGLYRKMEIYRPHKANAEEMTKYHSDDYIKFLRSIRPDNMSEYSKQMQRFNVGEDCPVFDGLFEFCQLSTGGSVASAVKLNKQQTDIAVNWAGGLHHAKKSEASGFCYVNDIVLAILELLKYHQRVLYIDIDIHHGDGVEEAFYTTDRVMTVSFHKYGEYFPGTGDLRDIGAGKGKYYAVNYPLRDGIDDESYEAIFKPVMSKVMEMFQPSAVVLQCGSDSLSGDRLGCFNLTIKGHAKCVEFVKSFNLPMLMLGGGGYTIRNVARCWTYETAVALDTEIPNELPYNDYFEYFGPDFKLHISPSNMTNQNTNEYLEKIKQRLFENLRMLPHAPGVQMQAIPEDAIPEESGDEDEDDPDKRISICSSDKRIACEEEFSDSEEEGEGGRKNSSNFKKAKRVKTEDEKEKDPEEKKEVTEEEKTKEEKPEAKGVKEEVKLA

| Compound | pIC50 |
| --- | --- |
| COc1ccc(NS(=O)(=O)c2ccc(/C=C/C(=O)Nc3ccccc3N)cc2)cc1OC [Compound 118] | 5.64 |
| COc1ccc(S(=O)(=O)Nc2ccc(CCC(=O)Nc3ccccc3N)cc2)cc1OC [Compound 121] | 4.64 |
| COc1ccc(S(=O)(=O)Nc2ccc(/C=C/C(=O)Nc3ccccc3N)cc2)cc1 [Compound 122] | 5.64 |
| O=C(C#Cc1ccc(NS(=O)(=O)c2ccc(-c3ccccc3)cc2)cc1)NO [Compound 128] | 6.52 |
| O=C(/C=C/c1ccc(CC(O)c2ccccc2)o1)NO (stereo not drawn) [Compound 136] | 6.30 |
| Nc1ccccc1NC(=O)CCc1ccc(CC(=O)c2ccccc2)o1 [Compound 144] | 5.16 |
| O=C(/C=C/c1ccc(NC(=O)Nc2cccc3ccccc23)cc1)NO [Compound 146] | 6.04 |
| COc1ccc(NC(=O)Nc2ccc(/C=C/C(=O)NO)cc2)cc1OC [Compound 147] | 6.32 |
| O=C(NO)c1ccc(CCCC(O)c2ccc3ccccc3c2)cc1 (stereo not drawn) [Compound 149] | 7.00 |
| O=C(NO)c1ccc(/C=C/c2ccccc2)cc1 [Compound 151] | 5.64 |
| O=C(NO)c1ccc(CCCCCc2ccccc2)cc1 [Compound 153] | 5.32 |
| O=C(CCc1ccc(CCCCc2ccccc2)cc1)NO [Compound 154] | 6.05 |
| O=C(CCCc1ccc(CCCCc2ccccc2)cc1)NO [Compound 156] | 6.12 |
| O=C(CCc1ccc(CCc2ccccc2)cc1)NO [Compound 157] | 5.62 |
| Cc1ccc(NS(=O)(=O)c2ccc(/C=C/C(=O)Nc3ccccc3N)cc2)cc1 [Compound 159] | 5.82 |
| Nc1ccccc1NC(=O)/C=C/c1ccc(S(=O)(=O)Nc2ccc(-c3ccccc3)cc2)cc1 [Compound 160] | 5.92 |
| Cc1ccc(NS(=O)(=O)c2ccc(/C=C/C(=O)NO)cc2)cc1 [Compound 161] | 7.30 |
| COc1ccc(NS(=O)(=O)c2ccc(/C=C/C(=O)Nc3nnc(S)s3)cc2)cc1OC [Compound 164] | 5.30 |
| O=C(/C=C/c1ccc(NS(=O)(=O)c2ccc(-c3ccccc3)cc2)cc1)Nc1nnc(S)s1 [Compound 165] | 5.70 |
